Data taken from PMC7217877, “N-AS-triggered SPMs are direct regulators of microglia in a model of Alzheimer’s disease” (Nature Communications, 2020).
“And” between values parts separate entries of the source, which are not always exact repeats. Equal entries are not always repeated.

Tests used:
[1] = tested on: APP/PS1 mice; assay: RNA seq of microglia from treated mice (Fig 4f-i); format: in vivo, mouse; conditions: N-AS-treated vs vehicle APP/PS1
Experimental: Transgenic mouse lines over-expressing the hAPP695swe (APP) and presenilin-1M146V (PS1) mutations were originated from GlaxoSmithKline (Harlow, UK)[32] and maintained as described previously. We purchased 5×FAD mice from Jackson Labs (Stock number. 34840-JAX). Because APP/PS1 and 5xFAD mice show sex differences in disease progression, we used only male mice. To examine possible therapeutic effect of N-AS and aspirin in APP/PS1 mice, the N-AS (30 mg kg^−1, Sigma-Aldrich, 01912) was injected daily s.c. for 8 weeks to 7-months-old APP/PS1 mice until the age of 9 months, and aspirin (2 mg kg^−1, Sigma-Aldrich, A5376)[33] was administrated orally to 7-months-old APP/PS1 mice for 8 weeks. […]
Total RNA was isolated in microglia derived from WT, APP/PS1, and APP/PS1 mice treated with N-AS using Trizol reagent (Invitrogen). RNA quality was assessed by Agilent 2100 bioanalyzer using the RNA 6000 Nano Chip (Agilent Technologies, Amstelveen, The Netherlands), and RNA quantification was performed using ND-2000 Spectrophotometer (Thermo Inc., DE, USA). […] Quantification was performed using the library quantification kit using a StepOne Real-Time PCR System (Life Technologies, Inc., USA). […] Then, total RNA-Seq reads were mapped using TopHat software tool in order to obtain bam file (alignment file). […]

[2] = tested on: 5×FAD mice; assay: western blot of synaptophysin, MAP2, synapsin1, PSD95 (Supplementary Fig 8f-i); format: in vivo, mouse; parameters: synaptophysin (western blot) / MAP2 (western blot) / synapsin1 (western blot): scale not given here
Experimental: Samples were lysed in RIPA buffer (Cell signaling Technologies), then subjected to SDS-PAGE and transferred to a nitrocellulose membrane. Membranes were blocked with 5% milk, incubated with primary antibody and then incubated with the appropriate horseradish peroxidase-conjugated secondary antibody. […] We performed densitometric quantification using the ImageJ software (National Institutes of Health). Images have been cropped for presentation.
Transgenic mouse lines over-expressing the hAPP695swe (APP) and presenilin-1M146V (PS1) mutations were originated from GlaxoSmithKline (Harlow, UK)[32] and maintained as described previously. We purchased 5×FAD mice from Jackson Labs (Stock number. 34840-JAX). Because APP/PS1 and 5xFAD mice show sex differences in disease progression, we used only male mice. To examine possible therapeutic effect of N-AS and aspirin in APP/PS1 mice, the N-AS (30 mg kg^−1, Sigma-Aldrich, 01912) was injected daily s.c. for 8 weeks to 7-months-old APP/PS1 mice until the age of 9 months, and aspirin (2 mg kg^−1, Sigma-Aldrich, A5376)[33] was administrated orally to 7-months-old APP/PS1 mice for 8 weeks. Also, to confirm possible therapeutic efficacy of N-AS in 5×FAD, the N-AS (30 mg kg^−1, Sigma-Aldrich, 01912) was injected daily s.c. for 4 weeks to 3-months-old 5×FAD mice until the age of 4 months. Block randomization method was used to allocate the animals to experimental groups. To eliminate the bias, we were blinded in experimental progress such as data collection and data analysis. Mice were housed at temperature of 22 °C and a 12 h day/12 h night cycle with free access to tap water and food pellets. All protocols were approved by the Kyungpook National University Institutional Animal Care and Use Committee.

[3] = target: T1, CYP 1A2 (Homo sapiens, UniProt P05177); assay: cytochrome P450 inhibition in human liver microsomes; format: in vitro ADME
T1 construct: from tissue; host or cells: human liver microsomes
T1 sequence (P05177 whole entry): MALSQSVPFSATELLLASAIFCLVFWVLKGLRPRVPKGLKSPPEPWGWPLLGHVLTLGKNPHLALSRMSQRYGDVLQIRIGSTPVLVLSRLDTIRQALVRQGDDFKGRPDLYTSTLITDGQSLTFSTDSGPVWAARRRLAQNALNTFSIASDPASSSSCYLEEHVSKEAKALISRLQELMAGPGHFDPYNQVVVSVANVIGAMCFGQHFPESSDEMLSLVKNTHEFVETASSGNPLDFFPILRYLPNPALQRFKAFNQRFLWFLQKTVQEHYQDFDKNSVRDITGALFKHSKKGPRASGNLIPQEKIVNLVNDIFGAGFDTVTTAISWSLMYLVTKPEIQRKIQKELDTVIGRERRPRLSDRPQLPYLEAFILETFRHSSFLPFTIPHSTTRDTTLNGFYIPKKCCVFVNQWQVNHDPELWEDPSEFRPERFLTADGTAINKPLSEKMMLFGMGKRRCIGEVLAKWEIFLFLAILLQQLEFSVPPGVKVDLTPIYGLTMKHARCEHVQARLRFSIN
Experimental: (§1) A 10 μl aliquot of this solution was then diluted using 90 μl of 100 mM potassium phosphate buffer (pH 7.4). Probe substrate cocktail solutions for seven major cytochrome P450 isozymes (phenacetin (100 μM for 1A2), bupropion (50 μM for 2B6), diclofenac (20 μM for 2C9), mephenytoin (100 μM for 2C19), dextromethorphan (5 μM for 2D6), chlorzoxazone (50 μM for 2E1), and midazolam (5 μM for 3A4)) were prepared with phosphate buffer. […] Reactions were stopped at 15 min by the addition of 200 μl cold acetonitrile (containing propranolol as internal standard at 20 ng ml^−1) and centrifuged at 17,968×g for 10 min. A 2 μl aliquot of the supernatant was injected into the LC-MS/MS system. The ratio of peak area of test compound /internal standard was used to determine the % metabolic activity of probe substrate according to the concentrations of N-AS added.

[4] = target: T2, CYP 2D6 (Homo sapiens, UniProt P10635); assay: as above; format: in vitro ADME
T2 construct: from tissue; host or cells: human liver microsomes
T2 sequence (P10635 whole entry): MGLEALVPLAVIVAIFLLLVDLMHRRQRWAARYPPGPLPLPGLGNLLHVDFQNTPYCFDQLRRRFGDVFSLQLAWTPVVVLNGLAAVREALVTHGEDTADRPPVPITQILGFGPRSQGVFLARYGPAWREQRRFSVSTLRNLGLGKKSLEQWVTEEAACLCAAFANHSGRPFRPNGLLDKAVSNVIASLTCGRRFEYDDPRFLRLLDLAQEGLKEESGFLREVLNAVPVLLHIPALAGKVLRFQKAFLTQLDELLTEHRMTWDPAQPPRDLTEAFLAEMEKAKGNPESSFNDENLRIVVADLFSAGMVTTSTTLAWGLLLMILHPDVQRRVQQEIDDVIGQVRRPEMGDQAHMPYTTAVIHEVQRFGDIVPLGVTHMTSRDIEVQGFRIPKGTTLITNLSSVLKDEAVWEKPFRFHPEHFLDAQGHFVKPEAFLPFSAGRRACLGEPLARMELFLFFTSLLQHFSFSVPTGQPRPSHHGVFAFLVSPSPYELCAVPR
Experimental: as §1

[5] = target: T3, COX2 N181A (Homo sapiens, UniProt P35354, N181A); assay: filter binding assay of [14C] N-AS to COX2; conditions: 0.2 uM, replicates
T3 construct: His (N); made in house
T3 sequence (P35354 18-604 N181A): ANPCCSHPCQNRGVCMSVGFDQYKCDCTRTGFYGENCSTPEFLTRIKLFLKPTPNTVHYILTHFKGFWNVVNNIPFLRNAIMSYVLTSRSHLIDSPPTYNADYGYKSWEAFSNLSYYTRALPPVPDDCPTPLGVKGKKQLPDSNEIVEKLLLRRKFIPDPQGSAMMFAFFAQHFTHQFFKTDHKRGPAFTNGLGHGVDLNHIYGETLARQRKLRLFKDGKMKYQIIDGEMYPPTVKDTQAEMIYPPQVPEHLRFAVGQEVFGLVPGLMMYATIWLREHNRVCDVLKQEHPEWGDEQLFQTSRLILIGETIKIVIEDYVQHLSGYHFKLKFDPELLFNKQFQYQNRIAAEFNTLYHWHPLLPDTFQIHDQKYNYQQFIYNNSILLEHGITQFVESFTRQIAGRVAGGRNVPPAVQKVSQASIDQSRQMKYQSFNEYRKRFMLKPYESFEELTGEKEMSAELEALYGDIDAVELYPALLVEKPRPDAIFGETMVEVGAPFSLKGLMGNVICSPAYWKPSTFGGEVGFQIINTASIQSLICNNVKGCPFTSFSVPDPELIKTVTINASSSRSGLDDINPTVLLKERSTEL

Q: What does the source list for `CCCCCCCCCCCCC/C=C/[C@@H](O)[C@H](CO)NC(C)=O` [N-AS, N-((2S,3R,E)-1,3-Dihydroxyoctadec-4-en-2-yl)acetamide]?
A: microglial gene expression pattern (RNA seq) [1]: upregulation of several reactive microglial genes; synaptophysin (western blot) ([2]; 5xFAD+N-AS, sFig 8f (sheet untitled)): 4.053 and 6.357 and 5.065 and 6.083 and 5.205 and 5.711; MAP2 (western blot) ([2]; 5xFAD+N-AS, sFig 8g (sheet untitled)): 2.523 and 3.013 and 3.332 and 2.975 and 2.768 and 3.172; PSD95 (western blot) ([2]; 5xFAD+N-AS, sFig 8i (sheet untitled)): 1.388 and 2.072 and 1.927 and 1.53 and 1.73 and 1.999; synapsin1 (western blot) ([2]; 5xFAD+N-AS, sFig 8h (sheet untitled)): 3.576 and 2.661 and 2.523 and 3.332 and 3.119 and 2.592; synapse activity ([2]; 5×FAD, N-AS 30 mg kg^-1 daily s.c. 4 weeks): similarly improved AD pathology of 5×FAD mice; IC50 [3]: > 10 µM; activity at 15 min, 25 µM ([3]; human, liver microsomes, pH 7.4, probe phenacetin, N-AS 25 µM, read-out: % of control at 25 µM): 94.6%; IC50 [4]: > 10 µM; activity at 15 min, 25 µM ([4]; human, liver microsomes, pH 7.4, probe dextromethorphan, N-AS 25 µM, read-out: % of control at 25 µM): 104%; binding velocity (Vbinding) [5]: 0.489 nM/min and 0.461 nM/min and 0.240 nM/min
